# Test results published in patent US8461083B2, “Herbicidal compounds” (Syngenta Limited, priority 2008, dated 2013).
# Assays:
# Type in all cases: in vivo
# [1] = tested on: Alopecurus myosuroides (ALOMY); assay: Post-emergence herbicidal glasshouse test; conditions: post-emergence (sprayed after 8 days cultivation), evaluated after 13 days, 100=total damage to plant, 0=no damage to plant; for POST Application ALOMY, damage to plant: 1000 g/ha; for pest or weed control at 1000 g/ha: Alopecurus myosuroides, 312 h, read-out: POST Application ALOMY, damage to plant
# Outline: (§1)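 Pots of SETFA, SOLNI, AMARE and ALOMY sprayed 1 day (pre-) or 8 days (post-emergence) after sowing at 1000 g/ha, formulated in acetone/water (50:50) with 0.5% Tween 20. Glasshouse at 24/16° C day/night, 14 h light, 65% humidity. Damage scored 0–100 after 13 days.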
# [2] = tested on: Amaranthus retoflexus (AMARE); assay: Post-emergence herbicidal glasshouse test; conditions: post-emergence (sprayed after 8 days cultivation), evaluated after 13 days, 100=total damage to plant, 0=no damage to plant; for POST Application AMARE, damage to plant: 1000 g/ha; for pest or weed control at 1000 g/ha: Amaranthus retroflexus, 312 h, read-out: POST Application AMARE, damage to plant
# Outline: as §1
# [3] = tested on: Echinochloa crus-galli (ECHCG); assay: Post-emergence herbicidal glasshouse test; conditions: post-emergence (sprayed after 8 days cultivation), evaluated after 13 days, 100=total damage to plant, 0=no damage to plant; for POST Application ECHCG, damage to plant: 1000 g/ha; for pest or weed control at 1000 g/ha: Echinochloa crus-galli, 312 h, read-out: POST Application ECHCG, damage to plant
# Outline: (§2)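 Seeds were sown in standard soil in pots and sprayed 1 day after sowing (pre-emergence) or after 8 days' cultivation (post-emergence). Compounds were applied at 1000 g/ha in acetone/water (50:50) with 0.5% Tween 20. Plants were kept at 24/16 °C day/night, 14 h light, 65% humidity, and damage was scored after 13 days (0 = none, 100 = total).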
# Setaria faberi (SETFA) [4] = assay: Post-emergence herbicidal glasshouse test; conditions: post-emergence (sprayed after 8 days cultivation), evaluated after 13 days, 100=total damage to plant, 0=no damage to plant; for POST Application SETFA, damage to plant: 1000 g/ha; for pest or weed control at 1000 g/ha: Setaria faberi, 312 h, read-out: POST Application SETFA, damage to plant
# Outline: as §1
# Solanum nigrum (SOLNI) [5] = assay: Post-emergence herbicidal glasshouse test; conditions: post-emergence (sprayed after 8 days cultivation), evaluated after 13 days, 100=total damage to plant, 0=no damage to plant; for POST Application SOLNI, damage to plant: 1000 g/ha; for pest or weed control at 1000 g/ha: Solanum nigrum, 312 h, read-out: POST Application SOLNI, damage to plant
# Outline: as §1
# [6] = tested on: Alopecurus myosuroides (ALOMY); assay: Pre-emergence herbicidal glasshouse test; conditions: pre-emergence (sprayed after one day cultivation), evaluated after 13 days, 100=total damage to plant, 0=no damage to plant; for PRE Application ALOMY, damage to plant: 1000 g/ha; for pest or weed control at 1000 g/ha: Alopecurus myosuroides, 312 h, read-out: PRE Application ALOMY, damage to plant
# Outline: as §1
# [7] = tested on: Amaranthus retoflexus (AMARE); assay: Pre-emergence herbicidal glasshouse test; conditions: pre-emergence (sprayed after one day cultivation), evaluated after 13 days, 100=total damage to plant, 0=no damage to plant; for PRE Application AMARE, damage to plant: 1000 g/ha; for pest or weed control at 1000 g/ha: Amaranthus retroflexus, 312 h, read-out: PRE Application AMARE, damage to plant
# Outline: as §1
# [8] = tested on: Echinochloa crus-galli (ECHCG); assay: Pre-emergence herbicidal glasshouse test; conditions: pre-emergence (sprayed after one day cultivation), evaluated after 13 days, 100=total damage to plant, 0=no damage to plant; for PRE Application ECHCG, damage to plant: 1000 g/ha; for pest or weed control at 1000 g/ha: Echinochloa crus-galli, 312 h, read-out: PRE Application ECHCG, damage to plant
# Outline: as §2
# Setaria faberi (SETFA) [9] = assay: Pre-emergence herbicidal glasshouse test; conditions: pre-emergence (sprayed after one day cultivation), evaluated after 13 days, 100=total damage to plant, 0=no damage to plant; for PRE Application SETFA, damage to plant: 1000 g/ha; for pest or weed control at 1000 g/ha: Setaria faberi, 312 h, read-out: PRE Application SETFA, damage to plant
# Outline: as §1
# Solanum nigrum (SOLNI) [10] = assay: Pre-emergence herbicidal glasshouse test; conditions: pre-emergence (sprayed after one day cultivation), evaluated after 13 days, 100=total damage to plant, 0=no damage to plant; for PRE Application SOLNI, damage to plant: 1000 g/ha; for pest or weed control at 1000 g/ha: Solanum nigrum, 312 h, read-out: PRE Application SOLNI, damage to plant
# Outline: as §1
Compound,"POST Application ALOMY, damage to plant [1]","POST Application AMARE, damage to plant [2]","POST Application ECHCG, damage to plant [3]","POST Application SETFA, damage to plant (Setaria faberi (SETFA) [4])","POST Application SOLNI, damage to plant (Solanum nigrum (SOLNI) [5])","PRE Application ALOMY, damage to plant [6]","PRE Application AMARE, damage to plant [7]","PRE Application ECHCG, damage to plant [8]","PRE Application SETFA, damage to plant (Setaria faberi (SETFA) [9])","PRE Application SOLNI, damage to plant (Solanum nigrum (SOLNI) [10])",pest or weed control at 1000 g/ha [1] [%],pest or weed control at 1000 g/ha [2] [%],pest or weed control at 1000 g/ha [3] [%],pest or weed control at 1000 g/ha (Setaria faberi (SETFA) [4]) [%],pest or weed control at 1000 g/ha (Solanum nigrum (SOLNI) [5]) [%],pest or weed control at 1000 g/ha [6] [%],pest or weed control at 1000 g/ha [7] [%],pest or weed control at 1000 g/ha [8] [%],pest or weed control at 1000 g/ha (Setaria faberi (SETFA) [9]) [%],pest or weed control at 1000 g/ha (Solanum nigrum (SOLNI) [10]) [%]
"COCc1nc2nc(C(F)(F)F)ccc2cc1C(=O)C1C(=O)CCCC1=O [Compound 1.100, 2-[2-(methoxymethyl)-7-trifluoromethyl-[1,8]-naphthyridine-3-carbony]-cyclohexane-1,3-dione]",40,90,80,80,80,20,100,100,100,100,–,–,–,–,–,–,–,–,–,–
"O=C1CCCC(=O)C1C(=O)c1cc2ccc(=O)n(Cc3ccccc3)c2nc1C(F)(F)F [Compound 2.20, 2-(8-Benzyl-7-oxo-7,8-dihydro-2-trifluoromethyl-[1,8]-naphthyridine-3-carbony)-cyclohexane-1,3-dione]",70,80,70,70,80,100,100,100,100,100,–,–,–,–,–,–,–,–,–,–
"O=C1CCCC(=O)C1C(=O)c1cc2ccc(=O)n(CCC=C(F)F)c2nc1C(F)(F)F [Compound 2.2, 2-{8-(4,4-difluorobut-3-enyl)-7-oxo-7,8-dihydro-2-trifluoromethyl-[1,8]-naphthyridine-3-carbony}-cyclohexane-1,3-dione]",70,100,90,90,100,60,70,90,90,90,–,–,–,–,–,–,–,–,–,–
"Cc1nc2nc(C(F)(F)F)c(C(=O)C3=C(OC(=O)C(C)C)CCCC3=O)cc2cc1F [Compound 4.21, Isobutyric acid 2-(6-fluoro-7-methyl-2-trifluoromethyl-[1,8]-naphthyridine-3-carbonyl)-3-oxo-cyclohex-1-enyl ester]",–,–,–,–,–,–,–,–,–,–,80,90,80,80,80,80,100,100,100,100
"Cc1c(F)cnc2nc(C(F)(F)F)c(C(=O)C3C(=O)CCCC3=O)cc12 [Compound 1.62, 2-[6-Fluoro-5-methyl-2-trifluoromethyl-[1,8]-naphthyridine-3-carbony]-cyclohexane-1,3-dione]",–,–,–,–,–,–,–,–,–,–,0,50,70,70,80,0,20,50,30,60
O=C1CCCC(=O)C1C(=O)c1cc2ccc(=O)n(Cc3ccccc3F)c2nc1C(F)(F)F [Compound 2.12],70,70,70,90,100,80,60,90,90,90,–,–,–,–,–,–,–,–,–,–
